# Measured values as given in patent US10906940B2, “Antimicrobial peptides, pharmaceutical compositions, and methods of use thereof” (priority 2014, dated 2021).
# Where a SMILES comes first, the peptide text is derived from it. Bridges are numbered along the chain shown (N, C = ends). [ ]: non-standard residue; d: D form. The star is where a group is joined. Tridecanoyl = CCCCCCCCCCCCC(=O)*; dOrn = NCCC[C@@H](N)C(=O)O
# Legend:
# [1] = test system: E. coli CVM 40138 (LCR-1); format: cell-based, Escherichia coli
# Text: (§1) The same MIC assay as in Example 6 was used to determine the antimicrobial susceptibility of Compound A, L-form (FIG. 15), and several variants. One variant was Compound A, D-form, with D-Lysine at position 7. Compound B is a variant in the fatty acid chain, with a fatty acid chain composition of C15H29O, and having D-Lys at position 7. Compound C is a variant in the fatty acid chain with a fatty acid chain composition of C11H21O, and having D-Lys at position 7. Variant D is a sequence variant with Phe at position 6 of the cyclic peptide, and having D-Lys at position 7. All variants were chemically synthesized.
# [2] = test system: E. coli CVM 40132 (ctx-m-9); format: cell-based, Escherichia coli
# Text: as §1
# E. coli CVM40146 (vim-1) = format: cell-based, Escherichia coli
# Text: as §1
# [3] = test system: E. coli CVM 40131 (ctx-m-2); format: cell-based, Escherichia coli
# Text: as §1
# E. coli CVM 15104 (shv3) = format: cell-based, Escherichia coli
# Text: as §1
# [4] = test system: E. coli CVM 40141 (imp-1); format: cell-based, Escherichia coli
# Text: as §1
# [5] = test system: E. coli CVM 40130 (oxa-9); format: cell-based, Escherichia coli
# Text: as §1
# [6] = test system: E. coli CVM 40133 (ctx-m-14); format: cell-based, Escherichia coli
# Text: as §1
# [7] = test system: E. coli CVM 35778 (ctx-m-2); format: cell-based, Escherichia coli
# Text: as §1
# E. coli CVM40148 (veb-1) = format: cell-based, Escherichia coli
# Text: as §1
# [8] = test system: E. coli CVM 40143 (act-1); format: cell-based, Escherichia coli
# Text: as §1
# [9] = test system: E. coli CVM 40136 (tem 52b); format: cell-based, Escherichia coli
# Text: as §1
# [10] = test system: E. coli CVM 40139 (fox-1); format: cell-based, Escherichia coli
# Text: as §1
# [11] = test system: E. coli CVM 40127 (oxa-2); format: cell-based, Escherichia coli
# Text: as §1
# [12] = test system: E. coli CVM 40147 (vim-2); format: cell-based, Escherichia coli
# Text: as §1
# [13] = test system: E. coli CVM 40129 (oxa-5); format: cell-based, Escherichia coli
# Text: as §1
# E. coli CVM 15100 (mir1) = format: cell-based, Escherichia coli
# Text: as §1
# [14] = test system: E. coli CVM 40126 (oxa-1); format: cell-based, Escherichia coli
# Text: as §1
# [15] = test system: E. coli CVM 40137 (DHA-1); format: cell-based, Escherichia coli
# Text: as §1
# [16] = test system: E. coli CVM 40128 (oxa-7); format: cell-based, Escherichia coli
# Text: as §1
# [17] = test system: E. coli CVM 40134 (ctx-m-15); format: cell-based, Escherichia coli
# Text: as §1
# S. aureus 12 = test: microbe, parasite or virus in culture; format: cell-based, Staphylococcus aureus; details: 12
# Text: as §1
# S. aureus 19 = test: microbe, parasite or virus in culture; format: cell-based, Staphylococcus aureus; details: 19
# Text: as §1
# S. aureus 8 = test: microbe, parasite or virus in culture; format: cell-based, Staphylococcus aureus; details: 8
# Text: as §1
# S. aureus 14 = test: microbe, parasite or virus in culture; format: cell-based, Staphylococcus aureus; details: 14
# Text: as §1
# S. aureus 10 = test: microbe, parasite or virus in culture; format: cell-based, Staphylococcus aureus; details: 10
# Text: as §1
# S. aureus 6 = test: microbe, parasite or virus in culture; format: cell-based, Staphylococcus aureus; details: 6
# Text: as §1
# S. aureus 4 = test: microbe, parasite or virus in culture; format: cell-based, Staphylococcus aureus; details: 4
# Text: as §1
# S. aureus 2 = test: microbe, parasite or virus in culture; format: cell-based, Staphylococcus aureus; details: 2
# Text: as §1
# E. faecalis BAA-2365 = test: microbe, parasite or virus in culture; format: cell-based, Enterococcus faecalis; details: BAA-2365
# Text: as §1
# E. faecalis ATCC 51575 = test: microbe, parasite or virus in culture; format: cell-based, Enterococcus faecalis; details: ATCC 51575
# Text: as §1
# [18] = test system: Salmonella CVM 40119 (tem 12); format: cell-based
# Text: as §1
# [19] = test system: Serratia marcescens SAMN 04276914; format: cell-based; details: SAMN 04276914
# Text: as §1
# [20] = test system: Serratia marcescens SAMN 04276915; format: cell-based; details: SAMN 04276915
# Text: as §1
# [21] = test system: Serratia marcescens SAMN04022954; format: cell-based; details: SAMN04022954
# Text: as §1
# [22] = test system: Enterobacter cloacae SBJ-9395; format: cell-based; details: SBJ-9395
# Text: as §1
# [23] = test system: Salmonella CVM 1290 (cmy2); format: cell-based
# Text: as §1
# [24] = test system: Serratia marcescens SBJ-9047; format: cell-based; details: SBJ-9047
# Text: as §1
# [25] = test system: Salmonella CVM 40118 (oxa-1); format: cell-based
# Text: as §1
# [26] = test system: Serratia marcescens SBJ-8283; format: cell-based; details: SBJ-8283
# Text: as §1
smiles,measurement,setting,value
CCCCCCCCCCCCC(=O)N[C@H](CCCN)C(=O)N[C@H](C(=O)N[C@@H]1C(=O)N[C@H](CCCN)C(=O)N[C@@H](CO)C(=O)N[C@@H](Cc2ccc(O)cc2)C(=O)N[C@H](CCCCN)C(=O)N[C@H](CO)C(=O)N[C@@H]([C@@H](C)CC)C(=O)N2CCC[C@H]2C(=O)N[C@@H]([C@@H](C)CC)C(=O)N2CCC[C@H]2C(=O)N[C@@H]([C@@H](C)CC)C(=O)O[C@@H]1C)C(C)C [Compound A D-form] (Tridecanoyl-[dOrn]VT[dOrn]SY[dK][dS]IPIPI; ester 3-C),MIC,[1],8 µg/mL
same,MIC,[2],8 µg/mL
same,MIC,E. coli CVM40146 (vim-1),8 µg/mL
same,MIC,[3],8 µg/mL
same,MIC,E. coli CVM 15104 (shv3),8 µg/mL
same,MIC,[4],16 µg/mL
same,MIC,[5],8 µg/mL
same,MIC,[6],16 µg/mL
same,MIC,[7],8 µg/mL
same,MIC,E. coli CVM40148 (veb-1),8 µg/mL
same,MIC,[8],8 µg/mL
same,MIC,[9],16 µg/mL
same,MIC,[10],8 µg/mL
same,MIC,[11],8 µg/mL
same,MIC,[12],16 µg/mL
same,MIC,[13],8 µg/mL
same,MIC,E. coli CVM 15100 (mir1),8 µg/mL
same,MIC,[14],8 µg/mL
same,MIC,[15],8 µg/mL
same,MIC,[16],8 µg/mL
same,MIC,[17],8 µg/mL
same,MIC,S. aureus 12,4 µg/mL
same,MIC,S. aureus 19,8 µg/mL
same,MIC,S. aureus 8,4 µg/mL
same,MIC,S. aureus 14,8 µg/mL
same,MIC,S. aureus 10,8 µg/mL
same,MIC,S. aureus 6,4 µg/mL
same,MIC,S. aureus 4,4 µg/mL
same,MIC,S. aureus 2,4 µg/mL
same,MIC,E. faecalis BAA-2365,8 µg/mL
same,MIC,E. faecalis ATCC 51575,8 µg/mL
same,MIC,[18],16 µg/mL
same,MIC,[19],32 µg/mL
same,MIC,[20],64 µg/mL
same,MIC,[21],32 µg/mL
same,MIC,[22],8 µg/mL
same,MIC,[23],8 µg/mL
same,MIC,[24],32 µg/mL
same,MIC,[25],4 µg/mL
same,MIC,[26],16 µg/mL
